Data from patent publication US9073882B2, “Inhibitors of the renal outer medullary potassium channel” (Merck Sharp & Dohme Corp., priority 2010, dated 2015).

target: hROMK1 (Kir1.1) (Homo sapiens (Human), UniProt P48048); test: ^86Rb^+ Efflux Assay; type: cell-based; settings: CHO-DHFR- cells stably expressing hROMK1 (Kir1.1); value in parentheses at the end of each Example; read-out: IC50 in the ^86Rb^+ Efflux Assay
Sequence (P48048 whole entry): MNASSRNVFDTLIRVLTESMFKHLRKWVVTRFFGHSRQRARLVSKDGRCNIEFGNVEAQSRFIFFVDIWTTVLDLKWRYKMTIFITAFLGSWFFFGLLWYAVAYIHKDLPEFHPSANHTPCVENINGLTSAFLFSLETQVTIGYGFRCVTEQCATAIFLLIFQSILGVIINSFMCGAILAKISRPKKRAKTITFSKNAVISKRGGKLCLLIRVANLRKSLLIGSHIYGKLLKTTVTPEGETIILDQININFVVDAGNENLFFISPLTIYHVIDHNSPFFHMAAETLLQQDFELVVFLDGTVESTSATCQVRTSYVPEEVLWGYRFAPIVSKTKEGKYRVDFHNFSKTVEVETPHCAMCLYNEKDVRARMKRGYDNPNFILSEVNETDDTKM

Row | Structure (SMILES) | IC50 [nM]
1 | O=[N+]([O-])c1ccc(CCN2CCN(CCc3ccc([N+](=O)[O-])cc3)C(CO)C2)cc1 (stereo not drawn) [Example 13, {1,4-Bis[2-(4-nitrophenyl)ethyl]piperazin-2-yl}methanol] | 260
2 | Cc1c(C(C)CN2CCN(CC(C)c3ccc4c(c3C)COC4=O)CC2)ccc2c1COC2=O (stereo not drawn) [Example 93] | 220
3 | O=[N+]([O-])c1ccc(CCN2CCN(CCc3ccc([N+](=O)[O-])cn3)CC2)cc1 [Example 2, 1-[2-(4-Nitrophenyl)ethyl]-4-[2-(5-nitropyridin-2-yl)ethyl]piperazine] | 280
4 | COc1c(C#N)ccc(CCN2CCN(CCc3ccc4c(c3C)COC4=O)CC2)c1F [Example 73, 3-Fluoro-2-methoxy-4-(2-{4-[2-(4-methyl-1-oxo-1,3-dihydro-2-benzofuran-5-yl)ethyl]piperazin-1-yl}ethyl)benzonitrile] | 91
5 | N#Cc1ccc2c(c1)CCC(N1CCN(CCc3ccc4c(c3)COC4=O)CC1)C2 (stereo not drawn) [Example 66, 6-{4-[2-(1-Oxo-1,3-dihydro-2-benzofuran-5-yl)ethyl]piperazin-1-yl}-5,6,7,8-tetrahydronaphthalene-2-carbonitrile] | 50
6 | O=[N+]([O-])c1ccc(CCN2CCN(C3Cc4ccc([N+](=O)[O-])cc4C3)CC2)cc1 (stereo not drawn) [Example 30, 1-(5-Nitro-2,3-dihydro-1H-inden-2-yl)-4-[2-(4-nitrophenyl)ethyl]piperazine] | 310
7 | O=[N+]([O-])c1ccc(CCN2CCN(CCc3ccc([N+](=O)[O-])cc3)C(C(F)F)C2)cc1 (stereo not drawn) [Example 12, 2-(Difluoromethyl)-1,4-bis[2-(4-nitrophenyl)ethyl]piperazine] | 440
8 | O=[N+]([O-])c1ccc(CCN2CCN(CCc3ccc([N+](=O)[O-])cc3)C(CF)C2)cc1 (stereo not drawn) [Example 5, 2-(Fluoromethyl)-1,4-bis[2-(4-nitrophenyl)ethyl]piperazine] | 180
9 | Cc1c(CCN2CCN(CCc3ccc(C#N)c(OC(F)(F)F)c3)CC2)ccc2c1COC2=O [Example 69, 2-Trifluoromethoxy-4-(2-{4-[2-(4-methyl-1-oxo-1,3-dihydro-2-benzofuran-5-yl)ethyl]piperazin-1-yl}ethyl)benzonitrile] | 200
10 | N#Cc1ccc(CCN2CCN(CCc3ccc4c(c3)COC4=O)CC2)c(Cl)c1F [Example 85, 3-Chloro-2-fluoro-4-(2-{4-[2-(1-oxo-1,3-dihydro-2-benzofuran-5-yl)ethyl]piperazin-1-yl}ethyl)benzonitrile] | 130
11 | O=[N+]([O-])c1ccc(CCN2CCN(CCc3ccc([N+](=O)[O-])cc3)C(C3CC3)C2)cc1 (stereo not drawn) [Example 11, 2-Cyclopropyl-1,4-bis[2-(4-nitrophenyl)ethyl]piperazine] | 860
12 | O=[N+]([O-])c1ccc(CCN2CCN(CCc3ccc([N+](=O)[O-])cc3C(F)(F)F)CC2)cc1 [Example 15, 1-[2-(4-Nitrophenyl)ethyl]-4-{2-[4-nitro-2-(trifluoromethyl)phenyl]ethyl}piperazine] | 440
13 | Cc1c(CCN2CCN(CCc3ccc(-n4cnnn4)nc3)CC2)ccc2c1COC2=O [Example 43, 4-Methyl-5-[2-[4-[2-[6-(tetrazol-1-yl)-3-pyridyl]ethyl]piperazin-1-yl]ethyl]-3H-isobenzofuran-1-one] | 610
14 | O=[N+]([O-])c1ccc(CCN2C[C@@H]3C[C@H]2CN3CCc2ccc([N+](=O)[O-])cc2)cc1 [Example 10, (1S,4S)-2,5-Bis[2-(4-nitrophenyl)ethyl]-2,5-diazabicyclo[2.2.1]heptane] | 110
15 | O=[N+]([O-])c1ccc(CCN2CC3CCC(C2)N3CCc2ccc([N+](=O)[O-])cc2)cc1 [Example 16, 3,8-Bis-[2-(4-nitrophenyl)ethyl]-3,8-diazabicyclo[3.2.1]octane] | 190
16 | COC(=O)[C@H](Cc1ccc([N+](=O)[O-])cc1)N1CCN(CCc2ccc([N+](=O)[O-])cc2)CC1 [Example 8, Methyl(2S)-3-(4-nitrophenyl)-2-{4-[2-(4-nitrophenyl)ethyl]piperazin-1-yl}propanoate] | 510
17 | Cc1c(CCN2CCN(CCc3cc(F)c(C#N)cc3Cl)CC2)ccc2c1COC2=O [Example 79, 5-Chloro-2-fluoro-4-(2-{4-[2-(4-methyl-1-oxo-1,3-dihydro-2-benzofuran-5-yl)ethyl]piperazin-1-yl}ethyl)benzonitrile] | 48
18 | O=C1OCc2cc(CCN3CCN(CCc4ccc(-n5cnnn5)nc4)CC3)ccc21 [Example 42, 5-[2-[4-[2-[6-(Tetrazol-1-yl)-3-pyridyl]ethyl]piperazin-1-yl]ethyl]-3H-isobenzofuran-1-one] | 910
19 | N#Cc1ccc2c(c1)CCCC2CN1CCN(CCc2ccc3c(c2)COC3=O)CC1 (stereo not drawn) [Example 37, 5-({4-[2-(1-Oxo-1,3-dihydro-2-benzofuran-5-yl)ethyl]piperazin-1-yl}methyl)-5,6,7,8-tetrahydronaphalene-2-carbonitrile] | 460
20 | COc1cc(CC(C)N2CCN(CCc3ccc4c(c3)COC4=O)CC2)ccc1C#N (stereo not drawn) [Example 48, 2-Methoxy-4-[2-[4-[2-(1-oxo-3H-isobenzofuran-5-yl)ethyl]piperazin-1-yl]propyl]benzonitrile] | 210
21 | COc1cc(CCN2CCN(CCc3ccc4c(c3)COC4=O)CC2)c(F)cc1C#N [Example 52, 5-Fluoro-2-methoxy-4-(2-{4-[2-(1-oxo-1,3-dihydro-2-benzofuran-5-yl)ethyl]piperazin-1-yl}ethyl)benzonitrile] | 68
22 | COc1c(C#N)ccc(CCN2CCN(CCc3ccc4c(c3)COC4=O)CC2)c1C [Example 83, 2-Methoxy-3-methyl-4-(2-{4-[2-(1-oxo-1,3-dihydro-2-benzofuran-5-yl)ethyl]piperazin-1-yl}ethyl)benzonitrile] | 180
23 | COC(=O)CC1CN(CCc2ccc([N+](=O)[O-])cc2)CCN1CCc1ccc([N+](=O)[O-])cc1 (stereo not drawn) [Example 21, Methyl{1,4-bis[2-(4-nitrophenyl)ethyl]piperazin-2-yl}acetate] | 390
24 | COc1cc(CCN2CCN(CCc3ccc([N+](=O)[O-])cc3)CC2)ccc1C#N [Example 22, 2-Methoxy-4-(2-{4-[2-(4-nitrophenyl)ethyl]piperazin-1-yl}ethyl)benzonitrile] | 52
25 | N#Cc1cc(Cl)c(CCN2CCN(CCc3ccc4c(c3)COC4=O)CC2)cc1F [Example 78, 5-Chloro-2-fluoro-4-(2-{4-[2-(1-oxo-1,3-dihydro-2-benzofuran-5-yl)ethyl]piperazin-1-yl}ethyl)benzonitrile] | 76

Further molecules by falling IC50, results first:

Row | IC50 [nM] | Structure (SMILES)
26 | 730 | N#Cc1ccc2c(c1)CC(N1CCN(CCc3ccc([N+](=O)[O-])cc3)CC1)C2 (stereo not drawn) [Example 29, 2-{4-[2-(4-Nitrophenyl)ethyl]piperazin-1-yl}-2,3-dihydro-1H-indene-5-carbonitrile]
27 | 340 | COc1cc(CCN2CCN(CCc3cc(OC)c(C#N)cc3F)CC2)c(F)cc1C#N [Example 54, 4,4′-(Piperazine-1,4-diyldiethane-2,1-diyl)bis(5-fluoro-2-methoxybenzonitrile)]
28 | 300 | COc1cc(C#N)ccc1CCN1CCN(CCc2ccc([N+](=O)[O-])cc2)CC1 [Example 31, 3-Methoxy-4-(2-{4-[2-(4-nitrophenyl)ethyl]piperazin-1-yl}ethyl)benzonitrile]
29 | 280 | COc1cc(C(C)CN2CCN(CCc3ccc4c(c3)COC4=O)CC2)ccc1C#N (stereo not drawn) [Example 44, 2-Methoxy-4-[1-methyl-2-[4-[2-(1-oxo-3H-isobenzofuran-5-yl)ethyl]piperazin-1-yl]ethyl]benzonitrile]
30 | 240 | N#Cc1ccc(CCN2CCN(CCc3ccc([N+](=O)[O-])cc3)CC2)cc1F [Example 32, 2-Fluoro-4-(2-{4-[2-(4-nitrophenyl)ethyl]piperazin-1-yl}ethyl)benzonitrile]
31 | 230 | Cc1c(CCN2CCN(CCc3c(F)cc(C#N)c(F)c3F)CC2)ccc2c1COC2=O [Example 75, 2,3,5-Trifluoro-4-(2-{4-[2-(4-methyl-1-oxo-1,3-dihydro-2-benzofuran-5-yl)ethyl]piperazin-1-yl}ethyl)benzonitrile]
32 | 160 | Cc1c(CCN2CCN(CCc3ccc(C#N)c4ccccc34)CC2)ccc2c1COC2=O [Example 74, 4-(2-{4-[2-(4-Methyl-1-oxo-1,3-dihydro-2-benzofuran-5-yl)ethyl]piperazin-1-yl}ethyl)naphthalene-1-carbonitrile]
33 | 160 | COc1c(C#N)ccc(CCN2CCN(CCc3ccc4c(c3)COC4=O)CC2)c1Cl [Example 87, 3-Chloro-2-methoxy-4-(2-{4-[2-(1-oxo-1,3-dihydro-2-benzofuran-5-yl)ethyl]piperazin-1-yl}ethyl)benzonitrile]
34 | 160 | N#Cc1c(F)cc(CCN2CCN(CCc3ccc([N+](=O)[O-])cc3)CC2)cc1F [Example 28, 2,6-Difluoro-4-(2-{4-[2-(4-nitrophenyl)ethyl]piperazin-1-yl}ethyl)benzonitrile]
35 | 150 | N#Cc1ccc(CCN2CCN(CCc3ccc4c(c3)COC4=O)CC2)cc1OC(F)F [Example 63, 2-(Difluoromethoxy)-4-(2-{4-[2-(1-oxo-1,3-dihydro-2-benzofuran-5-yl)ethyl]piperazin-1-yl}ethyl)benzonitrile]
36 | 80 | Cc1c(CCN2CCN(CCc3ccc4c(c3)COC4=O)CC2)ccc(C#N)c1F [Example 81, 2-Fluoro-3-methyl-4-(2-{4-[2-(1-oxo-1,3-dihydro-2-benzofuran-5-yl)ethyl]piperazin-1-yl}ethyl)benzonitrile]
37 | 76 | Cc1c(CCN2CCN(CCc3ccc4c(c3C)COC4=O)CC2)ccc2c1COC2=O [Example 59, 5,5′-(Piperazine-1,4-diyldiethane-2,1-diyl)bis(4-methyl-2-benzofuran-1(3H)-one)]
38 | 50 | N#Cc1ccc2c(c1)CCC(N1CCN(CCc3ccc([N+](=O)[O-])cc3)CC1)C2 (stereo not drawn) [Example 3, 6-{4-[2-(4-Nitrophenyl)ethyl]piperazin-1yl}-5,6,7,8-tetrahydronaphthalene-2-carbonitrile]

same assay, conditions: Table 1; CHO-DHFR- cells stably expressing hROMK1 (Kir1.1); read-out: ^86Rb^+ Efflux Assay IC50

Row | Structure (SMILES) | IC50 [nM]
39 | Cc1c(CCN2CCN(CCc3ccc(-n4cnnn4)nc3)CC2)ccc2c1COC2=O [Example 43, 4-Methyl-5-[2-[4-[2-[6-(tetrazol-1-yl)-3-pyridyl]ethyl]piperazin-1-yl]ethyl]-3H-isobenzofuran-1-one] | 620
40 | O=[N+]([O-])c1ccc(CCN2C[C@@H]3C[C@H]2CN3CCc2ccc([N+](=O)[O-])cc2)cc1 [Example 10, (1S,4S)-2,5-Bis[2-(4-nitrophenyl)ethyl]-2,5-diazabicyclo[2.2.1]heptane] | 110

More lines, now with the values ahead:

Row | IC50 [nM] | Structure (SMILES)
41 | 160 | Cc1c(CCN2CCN(CCc3ccc(C#N)c4ccccc34)CC2)ccc2c1COC2=O [Example 74, 4-(2-{4-[2-(4-Methyl-1-oxo-1,3-dihydro-2-benzofuran-5-yl)ethyl]piperazin-1-yl}ethyl)naphthalene-1-carbonitrile]
42 | 76 | Cc1c(CCN2CCN(CCc3ccc4c(c3C)COC4=O)CC2)ccc2c1COC2=O [Example 59, 5,5′-(Piperazine-1,4-diyldiethane-2,1-diyl)bis(4-methyl-2-benzofuran-1(3H)-one)]
